Results published in patent US5668182A, “Method of calming or sedating an animal with a hydroxy benzaldehyde compound” (priority 1996, dated 1997).

Key:
[1] = test system: mice; test: Spontaneous locomotor activity of mice (Example 3); assay type: in vivo
Description: The effect of vanillin on spontaneous locomotor activity of mice was examined. Three groups of male mice, with four mice per group, were assigned to receive a dosage of vanillin of 0, 200 or 300 mg/kg, respectively. After i.p. injection of vanillin or a control solution (0.9% NaCl in water), an injected mouse was placed by itself in a cage, the cage enclosed in a cabinet to exclude external stimuli, and locomotor activity of the mouse was monitored. Three types of movements of the mouse within the cage were measured, based upon interruptions of 16 beams of infrared light, spaced one inch (2.54 cm) apart, which traverse the cage. Interruptions of the infrared beams are detected by sensors and are recorded as "counts" of activity using a system obtained from Omnitech Electronics, Columbus Ohio.
Three types of activity measures were automatically recorded by the system: (1) all interruptions of all beams were recorded as "Total activity counts"; (2) interruptions of two consecutive beams were recorded as "Ambulatory activity counts"; and (3) interruptions of four consecutive beams were recorded as "Gross movements".
The effects of doses of vanillin (200 and 300 mg/kg i.p.) was assessed and compared with locomotor activity recorded for concomitantly tested mice given only vehicle (0.9% NaCl in water). Measurement of locomotor activity was made during 10 minute intervals for 60 minutes after treatment. Due to the relatively short duration of vanillin encountered, the higher dose group also had measurements taken at three minute intervals for 24 minutes and at one minute intervals for nine minutes after treatment.
Means and standard errors of numbers of counts were determined for each experimental group.

[2] = test system: mice; test: Electroshock-induced seizures in mice (Example 5); assay type: in vivo; conditions: vanillin 300 mg/kg i.p.
Description: Mice were treated with vanillin (100, 200, or 300 mg/kg) or saline (0.9% NaCl) by i.p. injection. The treatment was followed either by injection of pentylenetetrazol ("Metrazol"), 80 or 90 mg/kg by i.p. injection (given 5 minutes after vanillin) or by exposure to a 1-second pulse of shock through electrodes clamped to the ears (5 minutes after vanillin). The end-points for both tests were the occurrence of a tonic (extensor) convulsion and/or death. Six mice were used per group for the Metrazol-induced seizure test, and five mice were used per group for the electroshock-induced seizure test.

[3] = test system: rats; conditions: cited from earlier work
[4] = test system: mice; test: Pentobarbital-induced loss of righting reflex ("sleep") in mice (Example 2); assay type: in vivo
Description: The depressant effect of vanillin on mice was investigated by examining the effect of vanillin on pentobarbital-induced loss of righting reflex. Groups of mice (six to fourteen mice per group) were designated to receive a dose of vanillin of 50, 100, 200 or 300 mg/kg, or a control vehicle (0.9% sodium chloride in water). Fifty (50) mg/kg I.p. (intraperitoneally)injected pentobarbital was administered to each mouse of each group, and each mouse was also concurrently given the dose of vanillin (50, 100, 200 or 300 mg/kg) or the control vehicle, depending on its grouping, by s.c. (subcutaneous) injection.
The effects of vanillin on the onset and duration of "sleep" induced by the pentobarbital were observed. […] Means and standard errors of values for onset and duration of "sleep" were determined for each experimental group. Each vanillin-treated group was compared with its concomitantly tested control group (treated with saline in lieu of vanillin) for evaluating the statistical significance of vanillin effect.

[5] = test system: man; conditions: in man; cited from earlier work

COc1cc(C=O)ccc1O [vanillin, 4-hydroxy-3-methoxybenzaldehyde]
Gross movements ([1]; 200 mg/kg i.p., 0-10 min (control 83 ± 16)): 86 ± 16 counts
Ambulatory activity counts ([1]; 200 mg/kg i.p., 0-10 min (control 739 ± 108)): 545 ± 62 counts
Total activity counts ([1]; 200 mg/kg i.p., 0-10 min (control 1525 ± 281)): 897 ± 201 counts
Gross movements ([1]; 200 mg/kg i.p., 10-20 min (control 41 ± 8)): 43 ± 8 counts
Ambulatory activity counts ([1]; 200 mg/kg i.p., 10-20 min (control 461 ± 68)): 291 ± 37 counts
Gross movements ([1]; 200 mg/kg i.p., 20-30 min (control 34 ± 13)): 18 ± 13 counts
Ambulatory activity counts ([1]; 200 mg/kg i.p., 20-30 min (control 307 ± 76)): 130 ± 85 counts
Total activity counts ([1]; 200 mg/kg i.p., 20-30 min (control 582 ± 126)): 481 ± 257 counts
Gross movements ([1]; 200 mg/kg i.p., 30-40 min (control 31 ± 11)): 14 ± 11 counts
Ambulatory activity counts ([1]; 200 mg/kg i.p., 30-40 min (control 599 ± 224)): 409 ± 276 counts
Total activity counts ([1]; 200 mg/kg i.p., 30-40 min (control 635 ± 204)): 410 ± 275 counts
Gross movements ([1]; 200 mg/kg i.p., 40-50 min (control 19 ± 14)): 32 ± 13 counts
Ambulatory activity counts ([1]; 200 mg/kg i.p., 40-50 min (control 171 ± 103)): 243 ± 67 counts
Total activity counts ([1]; 200 mg/kg i.p., 40-50 min (control 268 ± 167)): 413 ± 115 counts
Gross movements ([1]; 200 mg/kg i.p., 50-60 min (control 23 ± 8)): 31 ± 8 counts
Gross movements ([1]; 300 mg/kg i.p., 0-10 min (control 83 ± 16)): 75 ± 23 counts
Ambulatory activity counts ([1]; 300 mg/kg i.p., 0-10 min (control 739 ± 108)): 479 ± 150 counts
Gross movements ([1]; 300 mg/kg i.p., 10-20 min (control 41 ± 8)): 57 ± 19 counts
Ambulatory activity counts ([1]; 300 mg/kg i.p., 10-20 min (control 461 ± 68)): 298 ± 117 counts
Total activity counts ([1]; 300 mg/kg i.p., 10-20 min (control 832 ± 105)): 449 ± 155 counts
Gross movements ([1]; 300 mg/kg i.p., 20-30 min (control 34 ± 13)): 37 ± 16 counts
Ambulatory activity counts ([1]; 300 mg/kg i.p., 20-30 min (control 307 ± 76)): 245 ± 100 counts
Total activity counts ([1]; 300 mg/kg i.p., 20-30 min (control 582 ± 126)): 404 ± 176 counts
Gross movements ([1]; 300 mg/kg i.p., 30-40 min (control 31 ± 11)): 38 ± 10 counts
Ambulatory activity counts ([1]; 300 mg/kg i.p., 30-40 min (control 599 ± 224)): 270 ± 74 counts
Total activity counts ([1]; 300 mg/kg i.p., 30-40 min (control 635 ± 204)): 441 ± 121 counts
Gross movements ([1]; 300 mg/kg i.p., 40-50 min (control 19 ± 14)): 21 ± 8 counts
Ambulatory activity counts ([1]; 300 mg/kg i.p., 40-50 min (control 171 ± 103)): 244 ± 66 counts
Total activity counts ([1]; 300 mg/kg i.p., 40-50 min (control 268 ± 167)): 365 ± 108 counts
Gross movements ([1]; 300 mg/kg i.p., 50-60 min (control 23 ± 8)): 12 ± 7 counts
effect on smaller types of motor movements ([1]; 200 and 300 mg/kg i.p.): suppressed
effect on gross movements, such as walking ([1]; any time, doses up to 300 mg/kg): not significantly affected
persistence of some effect on locomotor activity ([1]; i.p.): ≥ 60 min
Death ([2]; 1-second electroshock (vehicle 1/5)): 0/5
Tonic Convulsion ([2]; 1-second electroshock (vehicle 5/5)): 4/5
oral LD50 [3]: 1580 mg/kg
duration of loss of righting reflex ([4]; 100 to 300 mg/kg along with pentobarbital): markedly increased and enhanced
effect on barbituate-induced loss of righting reflex ([4]; lower dose, 50 mg/kg): appeared to lessen the barbituate effect
Duration of "Sleep" (mean + SEM) ([4]; vanillin 50 mg/kg s.c. + pentobarbital 50 mg/kg i.p., * p<0.05 vs control (vehicle 31.0 ± 3.79)): 20.3 ± 1.09 min
Duration of "Sleep" (mean + SEM) ([4]; vanillin 100 mg/kg s.c. + pentobarbital 50 mg/kg i.p. (vehicle 36.5 ± 4.67)): 47.6 ± 4.48 min
Onset of "sleep" (mean + SEM) ([4]; vanillin 200 mg/kg s.c. + pentobarbital 50 mg/kg i.p. (vehicle 3.5 ± 0.87)): 2.8 ± 0.97 min
Duration of "Sleep" (mean + SEM) ([4]; vanillin 200 mg/kg s.c. + pentobarbital 50 mg/kg i.p., ** p<0.001 vs control (vehicle 27.4 ± 3.34)): 62.9 ± 5.05 min
Onset of "sleep" (mean + SEM) ([4]; vanillin 300 mg/kg s.c. + pentobarbital 50 mg/kg i.p. (vehicle 4.3 ± 0.97)): 3.3 ± 0.23 min
Duration of "Sleep" (mean + SEM) ([4]; vanillin 300 mg/kg s.c. + pentobarbital 50 mg/kg i.p., ** p<0.001 vs control (vehicle 39.6 ± 6.57)): 102.1 ± 5.71 min
metabolism and excretion [5]: converted to vanillic acid in the liver and is excreted in the urine
